Data on 13 molecules can be found in ChEMBL document CHEMBL5291721, “A preclinical secondary pharmacology resource illuminates target-adverse drug reaction associations of marketed drugs” (Nat Commun, 2023).

As a reminder, the AC50 is the midpoint of the concentration-response curve, whichever way the signal moves. The low end stands for greater potency, the high end for weaker potency.

Where a SMILES comes first, the peptide text is derived from it. [ ]: non-standard residue; d: D form. pGlu = O=C1CC[C@@H](C(=O)O)N1; Thz = O=C(O)[C@@H]1CSCN1

The target in one assay is T1, Glucocorticoid receptor (Homo sapiens, UniProt P04150).
T1 sequence (P04150 whole entry): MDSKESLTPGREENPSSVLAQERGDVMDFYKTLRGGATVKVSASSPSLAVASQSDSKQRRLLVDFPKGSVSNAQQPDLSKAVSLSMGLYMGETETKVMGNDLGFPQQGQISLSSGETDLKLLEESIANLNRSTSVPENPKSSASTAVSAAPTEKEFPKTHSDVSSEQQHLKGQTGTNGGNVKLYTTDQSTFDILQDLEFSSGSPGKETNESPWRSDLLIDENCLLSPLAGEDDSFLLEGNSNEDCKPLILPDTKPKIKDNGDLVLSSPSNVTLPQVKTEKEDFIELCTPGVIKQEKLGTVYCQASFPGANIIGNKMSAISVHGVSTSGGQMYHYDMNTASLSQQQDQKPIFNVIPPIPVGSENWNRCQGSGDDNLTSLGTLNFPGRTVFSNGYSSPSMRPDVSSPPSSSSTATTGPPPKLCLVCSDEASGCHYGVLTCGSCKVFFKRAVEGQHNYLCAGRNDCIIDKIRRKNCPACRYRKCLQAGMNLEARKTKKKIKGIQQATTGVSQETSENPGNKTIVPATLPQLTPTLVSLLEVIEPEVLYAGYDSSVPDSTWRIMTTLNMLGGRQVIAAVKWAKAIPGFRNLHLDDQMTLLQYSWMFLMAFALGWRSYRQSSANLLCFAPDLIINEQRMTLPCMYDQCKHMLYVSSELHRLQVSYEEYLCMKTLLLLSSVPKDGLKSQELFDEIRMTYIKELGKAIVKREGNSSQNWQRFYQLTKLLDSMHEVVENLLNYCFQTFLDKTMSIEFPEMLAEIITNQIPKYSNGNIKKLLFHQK

In assay [1] the target is cGMP-inhibited 3',5'-cyclic phosphodiesterase 3A (Homo sapiens, UniProt Q14432). The class given is functional.
Assay [2] has as its target T2, 5-hydroxytryptamine receptor 2C (Homo sapiens, UniProt P28335).
T2 sequence (P28335 whole entry): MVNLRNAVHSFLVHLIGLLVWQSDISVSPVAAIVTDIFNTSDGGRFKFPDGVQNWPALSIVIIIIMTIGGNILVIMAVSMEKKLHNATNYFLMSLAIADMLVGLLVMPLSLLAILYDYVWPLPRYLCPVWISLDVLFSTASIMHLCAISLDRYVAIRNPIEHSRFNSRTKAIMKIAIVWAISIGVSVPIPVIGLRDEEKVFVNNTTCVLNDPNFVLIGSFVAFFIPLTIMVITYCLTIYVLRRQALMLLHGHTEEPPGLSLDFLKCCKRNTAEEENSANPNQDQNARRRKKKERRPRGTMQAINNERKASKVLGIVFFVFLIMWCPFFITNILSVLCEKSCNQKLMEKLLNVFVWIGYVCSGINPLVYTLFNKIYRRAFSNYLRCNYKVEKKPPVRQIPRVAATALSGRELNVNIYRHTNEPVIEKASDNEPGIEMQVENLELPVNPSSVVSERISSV

The next assay addresses T3, Adenosine receptor A3 (Homo sapiens, UniProt P0DMS8).
T3 sequence (P0DMS8 whole entry): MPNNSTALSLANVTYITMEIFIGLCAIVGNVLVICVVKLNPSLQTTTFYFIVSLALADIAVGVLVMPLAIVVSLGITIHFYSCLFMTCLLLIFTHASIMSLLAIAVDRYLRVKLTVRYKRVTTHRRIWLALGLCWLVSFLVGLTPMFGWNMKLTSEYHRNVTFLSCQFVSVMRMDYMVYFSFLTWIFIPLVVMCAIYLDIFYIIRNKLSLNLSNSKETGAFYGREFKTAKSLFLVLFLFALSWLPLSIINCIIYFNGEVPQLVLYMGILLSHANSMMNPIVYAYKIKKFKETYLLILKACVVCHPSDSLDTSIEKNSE

The next assay concerns the target D(3) dopamine receptor (Homo sapiens, UniProt P35462).
A further assay addresses T4, Thromboxane A2 receptor (Homo sapiens, UniProt P21731).
T4 sequence (P21731 whole entry): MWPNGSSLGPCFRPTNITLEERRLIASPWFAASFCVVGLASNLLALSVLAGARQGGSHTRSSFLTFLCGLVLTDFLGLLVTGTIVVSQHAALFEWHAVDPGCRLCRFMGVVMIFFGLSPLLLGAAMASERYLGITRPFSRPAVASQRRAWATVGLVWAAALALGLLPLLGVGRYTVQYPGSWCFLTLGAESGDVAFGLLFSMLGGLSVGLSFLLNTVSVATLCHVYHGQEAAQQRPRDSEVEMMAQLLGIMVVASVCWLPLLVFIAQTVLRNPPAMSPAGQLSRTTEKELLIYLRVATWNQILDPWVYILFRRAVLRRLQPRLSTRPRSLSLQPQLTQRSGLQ

The next assay deals with T5, Adenosine receptor A1 (Homo sapiens, UniProt P30542).
T5 sequence (P30542 whole entry): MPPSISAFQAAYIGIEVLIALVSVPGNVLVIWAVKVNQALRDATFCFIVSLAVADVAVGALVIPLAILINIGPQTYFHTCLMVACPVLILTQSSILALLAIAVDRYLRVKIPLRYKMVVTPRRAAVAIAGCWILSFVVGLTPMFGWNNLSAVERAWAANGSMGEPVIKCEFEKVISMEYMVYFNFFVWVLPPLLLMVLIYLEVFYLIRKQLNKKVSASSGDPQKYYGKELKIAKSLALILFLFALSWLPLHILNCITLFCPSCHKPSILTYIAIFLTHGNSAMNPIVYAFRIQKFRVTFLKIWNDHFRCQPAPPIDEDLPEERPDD

In assay [3] the target is 5-hydroxytryptamine receptor 2B (Homo sapiens, UniProt P41595). The class given is functional, cell-based.
A further assay has as its target Melanocortin receptor 3 (Homo sapiens, UniProt P41968).
The target of a further assay is D(1A) dopamine receptor (Homo sapiens, UniProt P21728). The class given is functional, cell-based.
Note: assay procedure not described here.

Sequence of 5-hydroxytryptamine receptor 2B (P41595 whole entry): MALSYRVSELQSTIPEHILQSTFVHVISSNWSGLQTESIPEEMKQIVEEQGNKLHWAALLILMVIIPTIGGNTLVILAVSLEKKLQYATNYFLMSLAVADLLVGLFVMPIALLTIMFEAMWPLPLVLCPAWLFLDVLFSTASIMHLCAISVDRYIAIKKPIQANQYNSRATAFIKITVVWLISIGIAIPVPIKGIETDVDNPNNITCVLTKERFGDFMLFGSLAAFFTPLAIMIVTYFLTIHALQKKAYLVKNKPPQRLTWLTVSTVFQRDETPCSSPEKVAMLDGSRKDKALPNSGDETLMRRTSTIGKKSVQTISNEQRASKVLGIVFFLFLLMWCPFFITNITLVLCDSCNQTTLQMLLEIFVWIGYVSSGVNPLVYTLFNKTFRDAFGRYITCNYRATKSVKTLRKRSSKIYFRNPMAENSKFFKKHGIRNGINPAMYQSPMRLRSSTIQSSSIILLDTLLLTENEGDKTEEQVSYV
Sequence of Melanocortin receptor 3 (P41968 whole entry): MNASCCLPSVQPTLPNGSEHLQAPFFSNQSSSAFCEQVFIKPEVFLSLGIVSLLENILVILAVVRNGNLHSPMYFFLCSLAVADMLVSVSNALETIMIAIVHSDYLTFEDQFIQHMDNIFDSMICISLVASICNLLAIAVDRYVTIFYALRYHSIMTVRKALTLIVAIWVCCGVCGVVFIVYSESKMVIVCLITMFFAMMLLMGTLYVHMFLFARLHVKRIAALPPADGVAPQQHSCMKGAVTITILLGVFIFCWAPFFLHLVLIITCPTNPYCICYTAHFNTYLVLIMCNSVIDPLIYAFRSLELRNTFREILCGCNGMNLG
Sequence of cGMP-inhibited 3',5'-cyclic phosphodiesterase 3A (Q14432 whole entry): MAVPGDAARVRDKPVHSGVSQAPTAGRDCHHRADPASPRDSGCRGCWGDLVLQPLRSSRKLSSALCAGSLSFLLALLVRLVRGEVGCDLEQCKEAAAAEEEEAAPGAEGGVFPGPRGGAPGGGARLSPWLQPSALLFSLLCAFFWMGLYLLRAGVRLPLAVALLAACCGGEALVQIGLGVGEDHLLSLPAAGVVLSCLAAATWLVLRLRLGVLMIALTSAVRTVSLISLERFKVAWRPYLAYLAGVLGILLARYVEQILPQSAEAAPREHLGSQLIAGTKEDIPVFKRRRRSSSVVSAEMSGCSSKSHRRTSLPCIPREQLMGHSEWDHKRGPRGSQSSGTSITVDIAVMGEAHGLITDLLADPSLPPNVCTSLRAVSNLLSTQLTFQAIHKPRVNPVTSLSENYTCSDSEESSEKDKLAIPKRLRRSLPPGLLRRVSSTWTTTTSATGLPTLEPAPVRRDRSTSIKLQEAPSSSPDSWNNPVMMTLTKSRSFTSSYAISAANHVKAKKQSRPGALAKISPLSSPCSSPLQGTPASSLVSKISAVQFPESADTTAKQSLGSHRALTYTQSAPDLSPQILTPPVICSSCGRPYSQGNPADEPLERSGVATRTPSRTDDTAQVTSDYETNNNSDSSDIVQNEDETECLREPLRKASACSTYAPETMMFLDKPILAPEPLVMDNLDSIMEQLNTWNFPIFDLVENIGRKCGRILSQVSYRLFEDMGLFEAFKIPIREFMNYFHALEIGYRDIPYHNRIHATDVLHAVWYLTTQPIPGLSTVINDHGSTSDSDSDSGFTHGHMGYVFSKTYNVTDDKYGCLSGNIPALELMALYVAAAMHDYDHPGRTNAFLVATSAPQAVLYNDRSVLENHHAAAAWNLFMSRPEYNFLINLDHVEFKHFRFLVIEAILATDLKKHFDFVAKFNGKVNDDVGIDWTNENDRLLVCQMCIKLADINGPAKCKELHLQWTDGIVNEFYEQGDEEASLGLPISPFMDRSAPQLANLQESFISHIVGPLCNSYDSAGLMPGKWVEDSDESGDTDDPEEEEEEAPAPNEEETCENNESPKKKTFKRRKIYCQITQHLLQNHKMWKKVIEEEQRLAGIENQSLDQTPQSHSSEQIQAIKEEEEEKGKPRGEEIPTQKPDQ
Sequence of D(1A) dopamine receptor (P21728 whole entry): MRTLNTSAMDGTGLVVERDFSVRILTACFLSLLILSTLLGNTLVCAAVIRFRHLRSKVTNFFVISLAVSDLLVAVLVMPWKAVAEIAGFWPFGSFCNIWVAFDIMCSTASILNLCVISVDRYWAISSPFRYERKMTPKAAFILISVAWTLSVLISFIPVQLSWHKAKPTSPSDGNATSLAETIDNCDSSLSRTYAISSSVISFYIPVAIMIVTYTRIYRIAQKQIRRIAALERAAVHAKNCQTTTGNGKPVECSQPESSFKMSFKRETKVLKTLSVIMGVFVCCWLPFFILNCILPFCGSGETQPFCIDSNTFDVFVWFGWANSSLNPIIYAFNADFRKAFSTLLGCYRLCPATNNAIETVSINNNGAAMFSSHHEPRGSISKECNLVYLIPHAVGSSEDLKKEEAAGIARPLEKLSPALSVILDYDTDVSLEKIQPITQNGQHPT
Sequence of D(3) dopamine receptor (P35462 whole entry): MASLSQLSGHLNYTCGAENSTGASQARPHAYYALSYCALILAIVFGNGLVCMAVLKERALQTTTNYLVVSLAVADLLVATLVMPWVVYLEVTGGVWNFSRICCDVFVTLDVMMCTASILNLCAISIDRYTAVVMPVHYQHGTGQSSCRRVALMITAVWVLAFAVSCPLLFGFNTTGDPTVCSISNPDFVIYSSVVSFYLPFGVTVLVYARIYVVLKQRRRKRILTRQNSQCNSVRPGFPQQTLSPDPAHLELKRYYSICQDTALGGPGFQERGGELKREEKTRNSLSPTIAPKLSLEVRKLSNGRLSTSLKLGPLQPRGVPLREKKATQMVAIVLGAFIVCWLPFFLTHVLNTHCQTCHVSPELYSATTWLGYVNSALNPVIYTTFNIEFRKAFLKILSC

Take `CCCC(C)(COC(N)=O)COC(N)=O` [MEPROBAMATE]: the AC50 is more than 10 µM on Glucocorticoid receptor; more than 30 µM in assay [1]; more than 30 µM in assay [2]; more than 10 µM at Adenosine receptor A3; more than 30 µM on D(3) dopamine receptor; more than 10 µM on Thromboxane A2 receptor. In addition, the half-maximal activity concentration (AC50) (at Adenosine receptor A1; in assay [3]; on Melanocortin receptor 3; at D(1A) dopamine receptor) was more than 10 µM in each case.

Consider `COc1ccc2cc(CCC(C)=O)ccc2c1` [NABUMETONE], for which the AC50 was more than 10 µM at Glucocorticoid receptor; more than 30 µM in [1]; more than 30 µM in [2]; more than 10 µM on Adenosine receptor A3; more than 30 µM at D(3) dopamine receptor; more than 10 µM on Thromboxane A2 receptor. The AC50 on Adenosine receptor A1 is more than 10 µM; in assay [3], more than 10 µM; on Melanocortin receptor 3 it was more than 10 µM; on D(1A) dopamine receptor, more than 30 µM.

As to `Cc1ccnc2c1NC(=O)c1cccnc1N2C1CC1` [NEVIRAPINE], the AC50 on Glucocorticoid receptor is more than 30 µM; in assay [1] it was 4.5 µM; in [2], more than 10 µM; at Adenosine receptor A3, 1.02 µM; on D(3) dopamine receptor it was more than 10 µM; at Thromboxane A2 receptor, more than 30 µM. The AC50 at Adenosine receptor A1 was 31.2 µM; in assay [3], more than 10 µM; on Melanocortin receptor 3, more than 30 µM; at D(1A) dopamine receptor it was more than 10 µM.

Regarding `O=C(NCCO[N+](=O)[O-])c1cccnc1` [NICORANDIL], the AC50 (on Glucocorticoid receptor; in assay [1]; in assay [2]; on Adenosine receptor A3; at D(3) dopamine receptor; on Thromboxane A2 receptor) was more than 30 µM throughout. Besides, the AC50 (on Adenosine receptor A1; in assay [3]; at Melanocortin receptor 3; at D(1A) dopamine receptor) was more than 30 µM throughout.

As for `O=C(c1cc(Cc2n[nH]c(=O)c3ccccc23)ccc1F)N1CCN(C(=O)C2CC2)CC1` [OLAPARIB], the AC50 is more than 30 µM on Glucocorticoid receptor; 24 µM in assay [1]; more than 30 µM in [2]; more than 30 µM at Adenosine receptor A3; more than 30 µM on D(3) dopamine receptor; more than 30 µM on Thromboxane A2 receptor. The AC50 at Adenosine receptor A1 was 11.9 µM; in assay [3], more than 10 µM; on Melanocortin receptor 3 it was more than 30 µM; on D(1A) dopamine receptor, more than 10 µM.

In the case of `C[C@]12C/C(=C/O)C(=O)C[C@@H]1CC[C@@H]1[C@@H]2CC[C@@]2(C)[C@H]1CC[C@]2(C)O` [OXYMETHOLONE], the AC50 was 21 µM on Glucocorticoid receptor; more than 30 µM in [1]; more than 30 µM in assay [2]; 8.2 µM at Adenosine receptor A3; more than 30 µM at D(3) dopamine receptor; more than 30 µM on Thromboxane A2 receptor. Also, the AC50 (at Adenosine receptor A1; in assay [3]; on Melanocortin receptor 3; on D(1A) dopamine receptor) was more than 30 µM throughout.

`COc1cc2[nH]c(C)c(CCN3CCN(c4ccccc4)CC3)c2cc1OC` [OXYPERTINE]: the AC50 at Glucocorticoid receptor is more than 30 µM; in assay [1], more than 30 µM; in [2], 0.49 µM; at Adenosine receptor A3 it was 20 µM; at D(3) dopamine receptor, more than 10 µM; at Thromboxane A2 receptor, more than 30 µM. For the same molecule, the AC50 was more than 30 µM on Adenosine receptor A1, 0.12 µM in [3], more than 30 µM on Melanocortin receptor 3 and more than 30 µM at D(1A) dopamine receptor.

As for `Fc1ccc([C@@H]2CCNC[C@H]2COc2ccc3c(c2)OCO3)cc1` [PAROXETINE], the AC50 on Glucocorticoid receptor is more than 30 µM; in assay [1] it was more than 30 µM; in assay [2] it was more than 30 µM; at Adenosine receptor A3, 22.5 µM; at D(3) dopamine receptor, more than 10 µM; on Thromboxane A2 receptor, more than 30 µM. The AC50 on Adenosine receptor A1 was more than 30 µM; in assay [3] it was 19.1 µM; at Melanocortin receptor 3 it was more than 30 µM; at D(1A) dopamine receptor, more than 10 µM.

Take `NC(=O)NC(=O)Cc1ccccc1` [PHENACEMIDE]: the AC50 at Glucocorticoid receptor is more than 10 µM; in [1] it was more than 30 µM; in assay [2], more than 30 µM; at Adenosine receptor A3, more than 10 µM; on D(3) dopamine receptor, more than 30 µM; at Thromboxane A2 receptor it was more than 10 µM. In addition, the AC50 (at Adenosine receptor A1; in assay [3]; on Melanocortin receptor 3; at D(1A) dopamine receptor) was more than 10 µM throughout.

Consider `OC[C@H]1O[C@@H](Oc2cc(O)cc(/C=C/c3ccc(O)cc3)c2)[C@H](O)[C@@H](O)[C@@H]1O` [PICEID], for which the AC50 (at Glucocorticoid receptor; in assay [1]; in assay [2]; at Adenosine receptor A3; at D(3) dopamine receptor; on Thromboxane A2 receptor) was more than 30 µM throughout. Besides, the AC50 (at Adenosine receptor A1; in assay [3]; at Melanocortin receptor 3; on D(1A) dopamine receptor) was more than 30 µM each time.

In the case of `O=C1CC[C@@H](C(=O)N2CSC[C@H]2C(=O)O)N1` [PIDOTIMOD] ([pGlu]-[Thz]-OH), the AC50 (at Glucocorticoid receptor; in [1]; in assay [2]; on Adenosine receptor A3; at D(3) dopamine receptor; at Thromboxane A2 receptor) was more than 30 µM throughout. Moreover, the AC50 (at Adenosine receptor A1; in assay [3]; at Melanocortin receptor 3; at D(1A) dopamine receptor) was more than 30 µM throughout.

Take `CCCN(CCC)S(=O)(=O)c1ccc(C(=O)O)cc1` [PROBENECID]: the AC50 is more than 10 µM at Glucocorticoid receptor; more than 30 µM in [1]; more than 30 µM in assay [2]; more than 10 µM at Adenosine receptor A3; more than 30 µM at D(3) dopamine receptor; more than 10 µM on Thromboxane A2 receptor. The AC50 (on Adenosine receptor A1; in [3]; at Melanocortin receptor 3; at D(1A) dopamine receptor) was more than 10 µM throughout.

As to `CCC(NC(C)C)C(O)c1ccc(O)c2[nH]c(=O)ccc12` (stereo not given) [PROCATEROL], the AC50 (on Glucocorticoid receptor; in [1]; in assay [2]; on Adenosine receptor A3; at D(3) dopamine receptor; on Thromboxane A2 receptor) was more than 30 µM throughout. In addition, the AC50 (at Adenosine receptor A1; in [3]; on Melanocortin receptor 3; at D(1A) dopamine receptor) was more than 30 µM throughout.
